Experimental data taken from ChEMBL document CHEMBL1135068, “Synthesis and anti-angiogenic activity of 6-(1,2,4-thiadiazol-5-yl)-3-amino pyridazine derivatives” (Bioorg Med Chem Lett, 2002).

Tests used:
3LL cell line [1] = assay: In vivo anti-tumor and anti-metastatic activity was measured after oral dosing 15 mg/kg b.i.d. to B6D2F1 mice bearing metastatic 3LL Lewis lung tumor; assay type: functional; details: Mus musculus
Rattus norvegicus = species: Rattus norvegicus; assay: Anti-angiogenic activity as inhibition of microvessel growth in rat aortic ring cultured in a fibrin clot; assay type: functional; details: Aorta
[2] = Compound was evaluated for ocular toxicity assessed after oral dosing at 40 mg/kg b.i.d. in male Wistar rat; No; assay type: organism-based, Eye; parameters: dose 40 mg/kg, route oral; details: in vivo
3LL cell line [3] = assay: In vivo anti-tumor and anti-metastatic activity was measured after oral dosing b.i.d. to B6D2F1 mice bearing metastatic 3LL Lewis lung tumor; assay type: functional, Mus musculus
[4] = Compound was evaluated for ocular toxicity assessed after oral dosing at 40 mg/kg b.i.d. in male Wistar rat; Yes; assay type: organism-based, Eye; parameters: dose 40 mg/kg, route oral; details: in vivo
[5] = Compound was evaluated for ocular toxicity assessed after oral dosing at 40 mg/kg b.i.d. in male Wistar rat; Very weak; assay type: organism-based, Eye; parameters: dose 40 mg/kg, route oral; details: in vivo

Compound	IC50 (Rattus norvegicus) [nM]	Eye toxicity [2]	further results
FC(F)(F)c1cccc(NC2CCN(c3ccc(-c4ncns4)nn3)CC2)c1	7	No toxicity	inhibition in vivo at 15 mg/kg (3LL cell line [1]): 42%
FC(F)(F)c1cc(N2CCN(c3ccc(-c4ncns4)nn3)CC2)cc(C(F)(F)F)c1	< 1	No toxicity	Inhibition (3LL cell line [3]): 24%
Cc1nsc(-c2ccc(N3CCN(c4cc(Cl)cc(Cl)c4)CC3)nn2)n1	< 0.1	–	Eye toxicity [4]: Yes
Cc1nsc(-c2nccc(N3CCN(c4cccc(C(F)(F)F)c4)CC3)n2)n1	> 100	No toxicity	–
Cc1nsc(-c2ccc(N3CCN(c4cccc(Cl)c4)CC3)nn2)n1	0.6	–	Eye toxicity [4]: Yes
Nc1nsc(-c2ccc(N3CCN(c4cccc(C(F)(F)F)c4)CC3)nn2)n1	20	No toxicity	–
Cc1nsc(-c2ccc(N3CCN(c4cccc(C(F)(F)F)c4)CC3)cc2)n1	10	No toxicity	–
FC(F)(F)c1cccc(N2CCN(C3CCN(c4ccc(-c5ncns5)nn4)CC3)CC2)c1	0.3	No toxicity	inhibition in vivo at 15 mg/kg (3LL cell line [1]): 54%
Cc1nsc(-c2ccc(N3CCN(c4cccc(C(F)(F)F)c4)CC3)nn2)n1	0.3	–	Eye toxicity [4]: Yes
Cc1nsc(-c2ccc(N3CCN(c4ccc(C(F)(F)F)cc4)CC3)nn2)n1	12	–	–
Cc1nsc(-c2ccc(N3CCN(c4cccc(F)c4)CC3)nn2)n1	6	–	–
FC(F)(F)c1cccc(N2CCN(c3ccc(-c4ncns4)nn3)CC2)c1	70	No toxicity	–
CN(C)c1nsc(-c2ccc(N3CCC(N4CCN(c5cccc(C(F)(F)F)c5)CC4)CC3)nn2)n1	< 1	–	inhibition in vivo at 15 mg/kg (3LL cell line [1]): 25%; Eye toxicity [5]: Very weak
CNc1nsc(-c2ccc(N3CCN(c4cccc(C(F)(F)F)c4)CC3)nn2)n1	3	No toxicity	–
Cc1nsc(-c2ccc(N3CCN(c4cccc([N+](=O)[O-])c4)CC3)nn2)n1	3	–	Eye toxicity [4]: Yes
Cc1nsc(-c2ccc(N3CCN(c4cccc(C#N)c4)CC3)nn2)n1	3	–	–
Cc1nsc(-c2ccc(N3CCN(c4ccccc4C(F)(F)F)CC3)nn2)n1	0.2	–	Eye toxicity [4]: Yes
COc1cccc(N2CCN(c3ccc(-c4nc(C)ns4)nn3)CC2)c1	7	–	–
Cc1nsc(-c2ccc(N3CCN(c4cccc(N)c4)CC3)nn2)n1	> 100	–	–
Cc1nsc(-c2ccnc(N3CCN(c4cccc(C(F)(F)F)c4)CC3)n2)n1	> 100	–	–
CCc1nsc(-c2ccc(N3CCN(c4cccc(C(F)(F)F)c4)CC3)nn2)n1	8	No toxicity	–
CN(C)c1nsc(-c2ccc(N3CCN(c4ccccc4)CC3)nn2)n1	0.1	No toxicity	inhibition in vivo at 15 mg/kg (3LL cell line [1]): 13%
Cc1nsc(-c2ccc(N3CCN(c4cc(C(F)(F)F)cc(C(F)(F)F)c4)CC3)nn2)n1	< 0.1	–	Eye toxicity [4]: Yes
CN(C)c1nsc(-c2ccc(N3CCN(c4cccc(C(F)(F)F)c4)CC3)nn2)n1	–	No toxicity	inhibition in vivo at 15 mg/kg (3LL cell line [1]): 39%
Cc1nsc(-c2ccc(N3CCN(c4cccc(C(F)(F)F)c4)CC3)nc2)n1	5	No toxicity	–
